The text below walks through data of US20180282271A1, “ANTIBIOTIC AMINO ACID MIMETICS” (priority 2017, published 2018).

Assay [1] has as its system Enterococcus faecalis MMX 101/ATCC 29212. In words: Broth microdilution MIC, standard CLSI media, ATCC QC organism. The assay is classed as cell-based. As for the experimental part:
(§1) The test organisms were originally received from clinical sources or from the American Type Culture Collection (ATCC, Manassas, Va.). When received, the organisms were subcultured onto an appropriate agar medium. Following incubation, colonies were harvested from the plate and a cell suspension was prepared in broth containing cryoprotectant and frozen at −80° C. Prior to the assay, a frozen vial of the culture was partially thawed and the contents were streaked for isolation onto an appropriate growth medium. The agar plates were incubated overnight at 35° C. Test organisms included staphylococci and enterococci (Table 1), streptococci (Table 2), Enterobacteriaceae (Table 3), lactose non-fermenting Gram-negative bacilli (Table 4), Haemophilus influenzae (Table 5), Neisseria gonorrhoeae (Table 5), and Clostridium difficile (Table 6).
(§2) The standard CLSI broth medium was employed for the purposes of quality control of the comparator drugs for the MIC assay and was only used for testing of relevant ATCC quality control isolates as established by CLSI (1-5).
(§3) MIC values were determined using a broth microdilution method as recommended by CLSI (1-5).
(§4) Column 1 was filled with 300 μL of the investigational and control agents at the appropriate stock concentration (40× of the highest test concentration). The Biomek 2000 was used to make eleven 2-fold serial dilutions to create a “mother plate.” The wells of column 12 contained no drug and served as growth control wells.
(§5) The daughter plates were prepared on the Biomek FX instrument which transferred 5 μL of drug solution from each well of the mother plate to the corresponding well of each daughter plate in a single step.
(§6) Standardized inoculum of each organism was prepared per CLSI methods (1-5). The inoculum for each organism was dispensed into sterile reservoirs divided by length (Beckman Coulter), and the Biomek 2000 was used to inoculate the plates. Daughter plates were placed on the Biomek 2000 work surface reversed so that inoculation took place from low to high drug concentration. The Biomek 2000 delivered 10 PL of standardized inoculum into each well resulting in a target inoculum size of approximately 5×10^5 CFU/mL. The wells of the daughter plates ultimately contained 185 μL of media, 5 μL of drug solution at 40× the test concentration, and 10 μL of bacterial inoculum prepared in media.
(§7) Plates were stacked 3-4 high, covered with a lid on the top plate, placed into plastic bags, and incubated at 35° C. under the appropriate conditions, with C. difficile incubated anaerobically. Plates were viewed post-incubation at 18-24 hr and again at 48 hr from the bottom using a plate viewer. […] MICs were read where visible growth of the organism was inhibited.
On the technique in general: Dilution methods test growth across graded concentrations, often in twofold steps.

Assay [2] relates to Escherichia coli MMX 102/ATCC 25922. The description is as above. The assay is classed as cell-based. As for the experimental part: as §1, §2, §3, §4, §5, §6, §7
The subject of assay [3] is Haemophilus influenzae MMX 1224/ATCC 49247. Described as above. The assay is classed as cell-based. As for the experimental part: as §1, §2, §3, §4, §5, §6, §7
For assay [4], the system named is Neisseria gonorrhoeae MMX 683/ATCC 49226. The assay is described as above. In kind it is cell-based. As for the experimental part: as §1, §2, §3, §4, §5, §6, §7
Assay [5] has as its system Pseudomonas aeruginosa MMX 103/ATCC 27853. The description is as above. The assay is classed as cell-based. The method, then:
as §1, §2, §3, §4, §5, §6, §7

The test system of assay [6] is Staphylococcus aureus MMX 100/ATCC 29213. The assay is described as above. In kind it is cell-based. The method, then:
as §1, §2, §3, §4, §5, §6, §7

Assay [7] has as its system Streptococcus pneumoniae MMX 1195/ATCC 49619. The description is as above. The assay is classed as cell-based. As for the experimental part:
as §1, §2, §3, §4, §5, §6, §7

For assay [8], the system named is Staphylococcus aureus MMX 100/ATCC 29213. The following applies: CLSI QC ranges shown in parenthesis; cited from earlier work.
Assay [9] has as its system Escherichia coli MMX 102/ATCC 25922. The following applies: CLSI QC ranges shown in parenthesis; cited from earlier work.
In assay [10] the test system is Pseudomonas aeruginosa MMX 103/ATCC 27853. The following applies: CLSI QC ranges shown in parenthesis; cited from earlier work.
Assay [11] concerns Haemophilus influenzae MMX 1224/ATCC 49247. The following applies: CLSI QC ranges shown in parenthesis; cited from earlier work.
Assay [12] deals with Clostridium difficile MMX 4381/ATCC 700057. In words: Broth microdilution MIC, standard CLSI media, ATCC QC organism. The following applies: Clostridioides difficile, ATCC700057, 48 hr results. The assay is classed as cell-based. As for the experimental part: as §1, §2, §3, §4, §5, §6, §7
Assay [13] has as its system Enterococcus faecalis MMX 101/ATCC 29212. The following applies: CLSI QC ranges shown in parenthesis; cited from earlier work.
Assay [14] deals with Streptococcus pneumoniae MMX 1195/ATCC 49619. The following applies: CLSI QC ranges shown in parenthesis; cited from earlier work.

Values after ≈ are worked out from the molar mass of the structure shown.

In the case of `CO/N=C(\C(=O)N[C@@H]1C(=O)N2C(C(=O)[O-])=C(C[N+]3(C)CCCC3)CS[C@H]12)c1csc(N)n1` [FEP, cefepime], the MIC in [1] (ATCC29212, 24 hr results) was above 64 µg/mL; in assay [1] (ATCC29212, 48 hr results), above 64 µg/mL; in assay [2] (ATCC25922, 24 hr results) it was 0.25 µg/mL (≈ 0.52 µM); in assay [2] (ATCC25922, 48 hr results), 0.25 µg/mL (≈ 0.52 µM); in assay [3] (ATCC49247, 24 hr results), 0.25 µg/mL (≈ 0.52 µM); in [3] (ATCC49247, 48 hr results) it was 0.25 µg/mL (≈ 0.52 µM). Further, the MIC in [4] (ATCC49226, 24 hr results) was 16 µg/mL (≈ 33.3 µM); in assay [4] (ATCC49226, 48 hr results), 32 µg/mL (≈ 66.6 µM); in [5] (ATCC27853, 24 hr results), 1 µg/mL (≈ 2.08 µM); in [5] (ATCC27853, 48 hr results), 2 µg/mL (≈ 4.16 µM); in assay [6] (ATCC29213, 24 hr results) it was 16 µg/mL (≈ 33.3 µM); in [6] (ATCC29213, 48 hr results), 16 µg/mL (≈ 33.3 µM). Besides, the MIC in assay [7] (ATCC49619, 24 hr results) was determined as 0.5 µg/mL (≈ 1.04 µM); in assay [7] (ATCC49619, 48 hr results), 0.5 µg/mL (≈ 1.04 µM). In addition, the “CLSI QC range of MIC” value is recorded as “(4-16) μg/mL” in assay [8], “(0.06-0.5) μg/mL” in [9], “(1-4) μg/mL” in assay [10] and “(0.12-1) μg/mL” in [11].

Turning to `C[C@@H](O)[C@H]1C(=O)N2C(C(=O)O)=C(S[C@@H]3CN[C@H](C(=O)N(C)C)C3)[C@H](C)[C@H]12` [MEM, meropenem], the MIC was 1 µg/mL (≈ 2.61 µM) in assay [12]; 4 µg/mL (≈ 10.4 µM) in assay [1] (ATCC29212, 24 hr results); above 4 µg/mL in assay [1] (ATCC29212, 48 hr results); 0.03 µg/mL (≈ 0.0782 µM) in assay [2] (ATCC25922, 24 hr results); 0.03 µg/mL (≈ 0.0782 µM) in assay [2] (ATCC25922, 48 hr results); 0.06 µg/mL (≈ 0.156 µM) in assay [3] (ATCC49247, 24 hr results). Besides, the MIC was 0.06 µg/mL (≈ 0.156 µM) in assay [3] (ATCC49247, 48 hr results); above 4 µg/mL in [4] (ATCC49226, 24 hr results); above 4 µg/mL in [4] (ATCC49226, 48 hr results); 0.5 µg/mL (≈ 1.3 µM) in assay [5] (ATCC27853, 24 hr results); 1 µg/mL (≈ 2.61 µM) in assay [5] (ATCC27853, 48 hr results); 0.06 µg/mL (≈ 0.156 µM) in assay [6] (ATCC29213, 24 hr results). The MIC in assay [6] (ATCC29213, 48 hr results) came out at 0.12 µg/mL (≈ 0.313 µM); in [7] (ATCC49619, 24 hr results), 0.06 µg/mL (≈ 0.156 µM); in assay [7] (ATCC49619, 48 hr results), 0.06 µg/mL (≈ 0.156 µM). Further, the “CLSI QC range of MIC” value in assay [8] is “(0.03-0.12) μg/mL”; in assay [13], “(2-8) μg/mL”; in assay [14], “(0.03-0.25) μg/mL”; in [9] it was “(0.008-0.06) μg/mL”; in [10] it was “(0.25-1) μg/mL”.
